# Measured values published in US12209072B2, “Cyclopentyl acids as LPA antagonists” (BRISTOL-MYERS SQUIBB COMPANY, priority 2018, dated 2025).
# Molecular target: T1, human LPA1 (Homo sapiens, UniProt Q92633)
# T1 construct: expressed in transfected cells; host or cells: Chinese hamster ovary (CHO) cells
# Experiment: LPA1 functional antagonist assay (LPA-induced calcium flux)
# Assay type: cell-based
# Settings: CHO cells overexpressing human LPA1; inhibition of calcium flux induced by 10 nM LPA; read-out: hLPA1 IC50
# Procedure: The effectiveness of compounds of the present invention as LPA1 inhibitors can be determined in an LPA1 functional antagonist assay as follows:
# Chinese hamster ovary cells overexpressing human LPA1 were plated overnight (15,000 cells/well) in poly-D-lysine coated 384-well microplates (Greiner bio-one, Cat #781946) in DMEM/F12 medium (Gibco, Cat #11039). Following overnight culture, cells were loaded with calcium indicator dye (AAT Bioquest Inc, Cat #34601) for 30 minutes at 37° C. The cells were then equilibrated to room temperature for 30 minutes before the assay. Test compounds solubilized in DMSO were transferred to 384 well non-binding surface plates (Corning, Cat #3575) using the Labcyte Echo acoustic dispense and diluted with assay buffer [1×HBSS with calcium/magnesium (Gibco Cat #14025-092), 20 mM HEPES (Gibco Cat #15630-080) and 0.1% fatty acid free BSA (Sigma Cat #A9205)] to a final concentration of 0.5% DMSO. Diluted compounds were added to the cells by FDSS6000 (Hamamatsu) at final concentrations ranging from 0.08 nM to 5 μM. and were then incubated for 20 min at room temperature at which time LPA (Avanti Polar Lipids Cat #857130C) was added at final concentrations of 10 nM to stimulate the cells. The compound IC50 value was defined as the concentration of test compound which inhibited 50% of the calcium flux induced by LPA alone. IC50 values were determined by fitting data to a 4-parameter logistic equation (GraphPad Prism, San Diego CA).
# T1 sequence (Q92633 whole entry): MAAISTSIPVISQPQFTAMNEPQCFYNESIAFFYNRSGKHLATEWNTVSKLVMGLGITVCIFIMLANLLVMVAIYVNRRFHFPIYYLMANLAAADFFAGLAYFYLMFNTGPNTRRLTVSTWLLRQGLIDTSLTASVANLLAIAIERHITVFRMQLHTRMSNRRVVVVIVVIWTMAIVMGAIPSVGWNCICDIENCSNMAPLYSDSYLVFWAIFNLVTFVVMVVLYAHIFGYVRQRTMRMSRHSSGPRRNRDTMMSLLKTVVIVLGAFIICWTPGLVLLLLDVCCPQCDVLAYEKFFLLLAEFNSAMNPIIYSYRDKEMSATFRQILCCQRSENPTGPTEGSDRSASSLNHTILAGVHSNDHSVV
row,IC50 [nM],Compound
1,171,"Cc1noc(-c2ccc(O[C@@H]3CC[C@@H](C(=O)O)C3)cc2)c1COC(=O)N(C)C1CCCC1 (racemic) [Example 3, (±)-Trans-3-(4-(4-(((cyclopentyl(methyl)carbamoyl)oxy)methyl)-3-methylisoxazol-5-yl)phenoxy)cyclopentane-1-carboxylic Acid]"
2,13,"Cc1nc(-c2onc(C)c2COC(=O)N(C)C2CCCC2)ccc1O[C@@H]1CC[C@@H](CC(=O)O)C1 (racemic) [Example 8, (±)-Trans-2-(3-((6-(4-(((cyclopentyl(methyl)carbamoyl)oxy)methyl)-3-methylisoxazol-5-yl)-2-methylpyridin-3-yl)oxy)cyclopentyl)acetic Acid]"
3,184,"Cc1nc(-c2nnn(C)c2COC(=O)N(C)CC2CCCC2)cnc1O[C@@H]1CC[C@@H](C(=O)O)C1 (racemic) [Example 14, (±)-trans-3-((5-(5-((((cyclo-pentylmethyl)(methyl)carbamoyl)oxy)methyl)-1-methyl-1H-1,2,3-triazol-4-yl)-3-methylpyrazin-2-yl)oxy) cyclopentanecarboxylic Acid]"
4,202,"Cc1nc(-c2cnn(C)c2COC(=O)N(C)CC2CCC2)cnc1O[C@H]1CC[C@H](C(=O)O)C1 (racemic) [Example 16, (±)-Trans-3-((5-(5-((((cyclobutylmethyl)(methyl)carbamoyl)oxy)methyl)-1-methyl-1H-pyrazol-4-yl)-3-methylpyrazin-2-yl)oxy)cyclopentanecarboxylic Acid]"
5,354,"CN(CC1CCC1)C(=O)OCc1c(-c2ccc(O[C@@H]3CC[C@@H](C(=O)O)C3)cn2)nnn1C (racemic) [Example 25, (±)-trans-3-((6-(5-((((cyclobutyl-methyl)(methyl)carbamoyl)oxy)methyl)-1-methyl-1H-1,2,3-triazol-4-yl)pyridin-3-yl)oxy)cyclopentane carboxylic acid]"
6,25,"Cc1nc(-c2onc(C)c2COC(=O)N(C)C2CCCC2)ccc1O[C@H]1CC[C@@H](CC(=O)O)C1 (racemic) [Example 47, (±)-cis-2-[3-({6-[4-({[cyclopentyl(methyl)carbamoyl]oxy}methyl)-3-methyl-1,2-oxazol-5-yl]-2-methyl-pyridin-3-yl}oxy)cyclopentyl]acetic acid]"
7,20,"Cc1nc(-c2onc(C)c2COC(=O)N(C)C2CCCC2)ccc1O[C@H]1CC[C@H](C(C)C(=O)O)C1 (mixture of isomers) [Example 50, (±)-trans-2-[3-({6-[4-({[cyclopentyl(methyl)carbamoyl]oxy}methyl)-3-methyl-1,2-oxazol-5-yl]-2-methyl-pyridin-3-yl}oxy)cyclopentyl]propanoic acid]"
8,24,"Cc1nc(-c2onc(C)c2COC(=O)N(C)C2CCCC2)ccc1O[C@H]1CC[C@H](C(C)C(=O)O)C1 (mixture of isomers) [Example 51, (±)-trans-2-[3-({6-[4-({[cyclopentyl(methyl)carbamoyl]oxy}methyl)-3-methyl-1,2-oxazol-5-yl]-2-methyl-pyridin-3-yl}oxy)cyclopentyl]propanoic acid]"
9,8,"Cc1nc(-c2onc(C)c2COC(=O)N(C)C2CCCC2)ccc1O[C@H]1CC[C@H](C(C)(C)C(=O)O)C1 (racemic) [Example 52, (±)-trans-2-[3-({6-[4-({[cyclopentyl(methyl)carbamoyl]oxy}methyl)-3-methyl-1,2-oxazol-5-yl]-2-methyl-pyridin-3-yl}oxy)cyclopentyl]-2-methylpropanoic acid]"

# Further lines, the compound ahead of its results:
row,Compound,IC50 [nM]
1,"CCCC1(COC(=O)NCc2c(-c3ccc(O[C@@H]4CC[C@@H](CC(=O)O)C4)c(C)n3)nnn2C)CC1 (racemic) [Example 9, (±)-Trans-2-(3-((2-methyl-6-(1-methyl-5-(((((1-propylcyclopropyl)methoxy)carbonyl)amino)methyl)-1H-1,2,3-triazol-4-yl)pyridin-3-yl)oxy)cyclopentyl)acetic Acid]",111
2,"CCCC1(N(C)C(=O)OCc2c(-c3ccc(O[C@@H]4CC[C@@H](CC(=O)O)C4)c(C)n3)nnn2C)CC1 (racemic) [Example 10, (±)-Trans-2-(3-((2-methyl-6-(1-methyl-5-(((methyl(1-propylcyclopropyl)carbamoyl)oxy)methyl)-1H-1,2,3-triazol-4-yl)pyridin-3-yl)oxy)cyclopentyl)acetic Acid]",372
3,"Cc1nc(-c2nnn(C)c2COC(=O)N(C)CC2CCC2)cnc1O[C@@H]1CC[C@@H](C(=O)O)C1 (racemic) [Example 13, (±)-Trans-3-((5-(5-((((cyclobutylmethyl)(methyl)carbamoyl)oxy)methyl)-1-methyl-1H-1,2,3-triazol-4-yl)-3-methylpyrazin-2-yl)oxy)cyclopentanecarboxylic Acid]",618
4,"Cc1nc(-c2nnn(C)c2CNC(=O)OCc2ccccc2)cnc1O[C@@H]1CC[C@@H](C(=O)O)C1 (racemic) [Example 15, (±)-Trans-3-((5-(5-((((benzyloxy)carbonyl)amino)methyl)-1-methyl-1H-1,2,3-triazol-4-yl)-3-methylpyrazin-2-yl)oxy)cyclopentanecarboxylic Acid]",714
5,"Cc1nc(-c2cnn(C)c2CNC(=O)OCc2ccccc2)cnc1O[C@H]1CC[C@H](C(=O)O)C1 (racemic) [Example 18, (±)-Trans-3-((5-(5-((((benzyloxy)carbonyl)amino)methyl)-1-methyl-1H-pyrazol-4-yl)-3-methylpyrazin-2-yl)oxy)cyclopentanecarboxylic Acid]",369
6,"Cc1nc(-c2nnn(C)c2CNC(=O)OCc2ccccc2)ccc1O[C@@H]1CC[C@@H](C(=O)O)C1 (racemic) [Example 20, (±)-trans-3-((6-(5-((((benzyloxy)carbonyl)amino)methyl)-1-methyl-1H-1,2,3-triazol-4-yl)-2-methyl-pyridin-3-yl)oxy)cyclopentane carboxylic acid]",39.7
7,"Cc1nc(-c2nnn(C)c2COC(=O)N(C)Cc2ccccc2)ccc1O[C@@H]1CC[C@@H](C(=O)O)C1 (racemic) [Example 22, (±)-trans-3-((6-(5-(((benzyl(methyl)carbamoyl)oxy)methyl)-1-methyl-1H-1,2,3-triazol-4-yl)-2-methylpyridin-3-yl)oxy)cyclopentane carboxylic acid]",182
8,"CCCN(C)C(=O)OCc1c(-c2ccc(O[C@@H]3CC[C@@H](C(=O)O)C3)c(C)n2)nnn1C (racemic) [Example 23, (±)-trans-3-((2-methyl-6-(1-methyl-5-(((methyl(propyl)carbamoyl)oxy)methyl)-1H-1,2,3-triazol-4-yl)pyridin-3-yl)oxy)cyclopentanecarboxylic acid]",2040
9,"Cc1nc(-c2nnn(C)c2COC(=O)N(C)CC(C)C)ccc1O[C@@H]1CC[C@@H](C(=O)O)C1 (racemic) [Example 24, (±)-trans-3-((6-(5-(((isobutyl(methyl)carbamoyl)oxy)methyl)-1-methyl-1H-1,2,3-triazol-4-yl)-2-methylpyridin-3-yl)oxy)cyclopentane carboxylic acid]",1160
10,"Cc1nc(-c2nnn(C)c2COC(=O)N(C)CC2CCC2)cnc1O[C@H]1CC[C@H](CC(=O)O)C1 (racemic) [Example 26, (±)-2-(Trans-3-((5-(5-((((cyclobutylmethyl)(methyl)carbamoyl)oxy)methyl)-1-methyl-1H-1,2,3-triazol-4-yl)-3-methylpyrazin-2-yl)oxy)cyclopentyl)acetic Acid]",371
11,"Cc1noc(-c2ccc(O[C@@H]3CC[C@@H](CC(=O)O)C3)cn2)c1CNc1nccc(-c2ccccn2)n1 (racemic) [Example 29, (±)2-(Trans-3-((6-(3-methyl-4-(((4-(pyridin-2-yl)pyrimidin-2-yl)amino)methyl)isoxazol-5-yl)pyridin-3-yl)oxy)cyclopentyl)acetic Acid]",54
12,"Cc1nc(-c2nnn(C)c2COC(=O)N(C)CC2CCC2)ccc1OC[C@@H]1CC[C@H](C(=O)O)C1 (racemic) [Example 30, (±)-Cis-3-(((6-(5-((((cyclobutylmethyl)(methyl)carbamoyl)oxy)methyl)-1-methyl-1H-1,2,3-triazol-4-yl)-2-methylpyridin-3-yl)oxy)methyl)cyclopentane-1-carboxylic Acid]",21
13,"Cc1nc(-c2nnn(C)c2COC(=O)N(C)CC2CCC2)ccc1O[C@H]1CC[C@@H](CC(=O)O)C1 (racemic) [Example 48, (±)-cis-2-[3-({6-[5-({[(cyclobutyl-methyl)(methyl)carbamoyl]oxy}methyl)-1-methyl-1H-1,2,3-triazol-4-yl]-2-methylpyridin-3-yl}oxy)cyclopentyl]acetic acid]",40
14,"Cc1nc(-c2nnn(C)c2COC(=O)N(C)CC2CCC2)ccc1O[C@H]1CC[C@H](C2(C(=O)O)CC2)C1 (racemic) [Example 53, (±)-trans-1-[3-({6-[5-({[(cyclobutyl-methyl)(methyl)carbamoyl]oxy}methyl)-1-methyl-1H-1,2,3-triazol-4-yl]-2-methylpyridin-3-yl}oxy)cyclo-pentyl]cyclopropane-1-carboxylic acid]",14
